Tests used:
Format in all cases: cell-based, human
HuTu 80 cells [1] = test: Detection of intracellular ROS by flow cytometry (CellROX Deep Red); conditions: for Fluorescence intensity (CellROX Deep Red, ROS production): 24 h
Text: Increased generation of reactive oxygen species (ROS) by the test compounds can also characterize the development of apoptosis along the mitochondrial pathway. Mitochondria are both a potential source and target of ROS. An increase in ROS production leads to the disruption of mitochondrial functions and, subsequently, to irreversible damage and cell death. In this regard, the effect of lead compound 7r at IC50/2 and IC50 concentrations on ROS production in HuTu 80 cells was investigated using a flow cytometry assay and the CellROX® Deep Red flow cytometry kit. […] This indicates an increase in ROS production in the presence of the test compound.
(§1) Cell Culture. HuTu 80 cells at 1 × 10^6 cells/well in a final volume of 2 mL were seeded into six-well plates.
ROS generation was investigated using a flow cytometry assay and CellROX® Deep Red flow cytometry kit. For this, […] cells were harvested at 2000 rpm for 5 min and then washed twice with ice-cold PBS, followed by resuspension in 0.1 mL of medium without FBS, to which we added 0.2 μL of CellROX® Deep Red (Thermo Fisher Scientific, Waltham, MA, USA) and incubated at 37 °C for 30 min After three times washing the cells and suspending them in PBS, the production of ROS in the cells was immediately monitored using flow cytometer Guava easy Cyte, MERCK).

M-HeLa = test: MTT cytotoxicity test, M-HeLa cells; conditions: Homo sapiens, M-HeLa, 24 h incubation, tested at 1–100 µM, three independent experiments, read-out: IC50 (µM) Cancer Cell Lines M-HeLa
HuTu 80 cells [2] = test: Cell apoptosis analysis by flow cytometry (annexin V-Alexa Fluor 647 / propidium iodide); conditions: HuTu 80, IC50/2 and IC50 concentrations, 24-h incubation
Text: Induction of apoptosis is one of the most important mechanisms of anticancer activity. The apoptosis-inducing effect in HuTu 80 cells was studied by flow cytometry using sets of annexin V binding to the apoptosis marker phosphatidylserine. On the surface of the membranes of healthy cells, phosphatidylserine is contained in a minimal amount. Therefore, the interaction of annexin V with these cells is negligible. During apoptosis, phosphatidylserine molecules appear on the cell surface and can interact with the protein. This interaction leads to an increase in the fluorescence intensity of apoptotic cells, which is recorded by a flow cytometer. The apoptosis-inducing effect was evaluated using the example of the leader compound 7r at IC50/2 and IC50 concentrations on the HuTu 80 cell line (Figure 1).
as §1
Cell Apoptosis Analysis. […] The cells were harvested at 2000 rpm for 5 min and then washed twice with ice-cold PBS, followed by resuspension in binding buffer. Next, the samples were incubated with 5 μL of annexin V- Alexa Fluor 647 (Sigma-Aldrich, St. Louis, MO, USA) and 5 μL of propidium iodide (Sigma-Aldrich, St. Louis, MO, USA) for 15 min at room temperature in the dark. Finally, the cells were analyzed using flow cytometry (Guava easy Cyte, MERCK, Darmstadt, Germany) within 1 h. […]

Chang liver = test: MTT cytotoxicity test, normal Chang liver cells; conditions: Homo sapiens, Chang liver, 24 h incubation, tested at 1–100 µM, three independent experiments, read-out: IC50 (µM) Normal Cell Lines Chang Liver
HuTu 80 cells [3] = test: Mitochondrial membrane potential by flow cytometry (JC-10); conditions: HuTu 80, IC50/2 and IC50 concentrations, 24-h incubation
Text: Violation of the functions of the mitochondria of the cell is one of the most common signs of apoptosis inherent in eukaryotic organisms. With mitochondrial dysfunction, pro-apoptotic factors are released into the cytoplasm—cytochrome c, AIF, Smac/DIABLO, endonuclease G, as well as proforms of caspases 2, 3, and 9—inducing the cascade. The release of these protein factors can be associated both with the rupture of mitochondrial membranes and with the activation of specific channels in the outer mitochondrial membrane. This usually leads to a change in the mitochondrial membrane potential (ΔΨm) due to a change in the permeability of the inner mitochondrial membrane for H+ protons. […] The principle of operation of these dyes is determined by their ability to spontaneously penetrate through the cytoplasmic membranes of cells, as well as the outer and inner membranes of mitochondria and accumulate in areas with a high concentration of protons, that is, under the inner mitochondrial membrane. This effect is accompanied by a change in the intensity of cell fluorescence, which is recorded by cytofluorimetry. […] JC-10 accumulates in the mitochondrial matrix and forms aggregates (J-aggregates) with red fluorescence in normal cells with a high mitochondrial membrane potential. […]

HuTu 80 = test: MTT cytotoxicity test, HuTu 80 cells

Cc1ncc(CCl)c2cc(C(=O)Nc3ccc(S(=O)(=O)c4ccc(NC(=O)c5cc6c(CCl)cnc(C)c6oc5=O)cc4)cc3)c(=O)oc12 [7r, N,N′-(Sulfonylbis(4,1-phenylene))bis(5-(chloromethyl)-8-methyl-2-oxo-2H-pyrano[2,3-c]pyridine-3-carboxamide)]
Fluorescence intensity (CellROX Deep Red, ROS production) (HuTu 80 cells [1]; HuTu 80, 2.8 µM (IC50/2)): 1400
Fluorescence intensity (CellROX Deep Red, ROS production) (HuTu 80 cells [1]; HuTu 80, 5.5 µM (IC50)): 1700
ROS production vs control (in words) (HuTu 80 cells [1]; HuTu 80, IC50/2 and IC50 concentrations): significant increase
IC50 (M-HeLa): 64.5 ± 4.5 µM
apoptosis-inducing effect (in words) (HuTu 80 cells [2]): apoptotic effects were registered
IC50 (Chang liver): 78 ± 5.9 µM
change in mitochondrial membrane potential (in words) (HuTu 80 cells [3]): decrease in the mitochondrial membrane potential
IC50 (HuTu 80; Homo sapiens, HuTu80, MTT test, 24 h incubation, tested at 1–100 µM, three independent experiments, read-out: IC50 (µM) Cancer Cell Lines HuTu 80): 5.5 ± 0.4 µM
selectivity index, SI = IC50(Chang liver)/IC50(HuTu 80) (HuTu 80; normal Chang liver vs HuTu 80): 14
